Test results: paper PMC4618141, “Use of In Vitro and Predictive In Silico Models to Study the Inhibition of Cytochrome P4503A by Stilbenes” (PLoS ONE, 2015)

Target: CYP3A4 (Homo sapiens, UniProt P08684)
Experiment: inhibition of testosterone metabolism in Caco-2/TC7 cells (HPLC)

Sequence of CYP3A4 (P08684 2-503): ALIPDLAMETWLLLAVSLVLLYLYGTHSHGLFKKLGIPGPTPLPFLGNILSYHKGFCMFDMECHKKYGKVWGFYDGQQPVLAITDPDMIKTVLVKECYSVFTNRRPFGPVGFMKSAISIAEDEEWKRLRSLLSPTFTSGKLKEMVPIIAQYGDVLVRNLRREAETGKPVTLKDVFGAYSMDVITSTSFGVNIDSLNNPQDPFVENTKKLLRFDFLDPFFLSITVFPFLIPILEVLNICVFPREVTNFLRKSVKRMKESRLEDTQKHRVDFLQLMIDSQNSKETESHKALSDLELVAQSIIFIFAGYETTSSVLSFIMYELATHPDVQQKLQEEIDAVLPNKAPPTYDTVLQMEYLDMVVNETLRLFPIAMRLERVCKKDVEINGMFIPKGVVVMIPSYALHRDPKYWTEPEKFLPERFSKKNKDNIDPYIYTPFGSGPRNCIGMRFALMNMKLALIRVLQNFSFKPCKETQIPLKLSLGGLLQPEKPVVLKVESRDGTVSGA

Oc1ccc(/C=C/c2cc(O)cc(O)c2)cc1 [Resveratrol, trans-3,4′,5-trihydroxystilbene]
IC50: < 10 µM
